Measured values reported in US20240090547A1, “SWEETENER COMPOSITIONS COMPRISING MOGROSIDES AND USES THEREOF” (Firmenich Incorporated, priority 2021, published 2024).

Legend:
Type in all cases: in vivo, human
panel of flavorists [1] = experiment: Additional sensory testing for vanilla milk, flavorist panel; settings: 400 ppm mogrosides, 0 to 10 scale, letter in parentheses = Duncan's test group; for Sweet Linger: aftertaste, after expectoration; for Bitterness / Mouthfeel/Thickness / Peak Sweetness / Upfront Sweetness: in-mouth
Method: (§1) A panel of flavorists at three locations evaluated vanilla milk containing various mogrosides at a concentration of 400 ppm mogrosides for in-mouth attributes (peak sweetness, upfront sweetness, bitterness, and mouthfeel/thickness) and aftertaste attributes (sweet taste linger), on a 0 to 10 scale. The in-mouth attributes were evaluated while holding the sample in the mouth, while the aftertaste attributes were evaluated after expectoration. The data was analyzed using Duncan's new multiple range test and the scores are provided in the data below in parentheses.

expert panelists = experiment: Expert panelists' comparison of mogrosides with stevia; settings: 'Examples 4 and 5', in words
panel of flavorists [2] = experiment: Additional sensory testing for lemon-flavored (lemon-lime) beverage, flavorist panel; settings: 600 ppm mogrosides, 0 to 10 scale, letter in parentheses = Duncan's test group; for Sweet Linger: aftertaste, after expectoration; for Bitterness / Mouthfeel/Thickness / Peak Sweetness / Upfront Sweetness: in-mouth
Method: as §1, with “lemon-lime beverage” for “vanilla milk containing”, “600” for “400”, “expectoration.” for “expectoration. The data was analyzed using Duncan's new multiple range test and the scores are provided in the data below in parentheses.”

panel of volunteers [3] = experiment: Sensory testing for lemon-lime carbonated soft drink; design: key to Sweetness / Delayed Sweetness / Bitterness / Lingering Sweetness / Overall Off-Taste / Licorice Aftertaste / Bitterness Aftertaste: 10-point scale; scores normalized to average Reb M scores; settings: 600 ppm (mogroside V 600 mg [sic]), average normalized score, 10-point scale
Method: (§2) A panel of volunteers evaluated siamenoside I for in-mouth attributes (sweetness, delayed sweetness, sourness, bitterness, global flavor intensity, thickness/body, and astringence) and aftertaste (AT) attribtues (lingering sweetness, overall off-taste intensity, licorice off-tast, bitterness off-taste, and mouth coating) on a 10-point scale. Two replicate sessions were conducted, with a 20 minute break between sessions. There was a 90 second delay between samples within a session. Panelists evaluated all samples in a first session and evaluated the samples again a second time in a second session. Control samples of Rebaudioside M (Reb M) were evaluated during all sessions as a control. Mogroside V was also evaluated and sensory data for mogroside V is provided.
(§3) Data analysis was performed using 2-way analysis of variance (ANOVA) with interaction using Tukey's HSD test. The data was normalized for each attribute according to average scores for Reb M.
A panel of volunteers evaluated the siamenoside I-containing lemon-lime carbonated soft drink for in-mouth attributes and aftertaste attributes according to the methods described in Example 1 above.
The average normalized in-mouth attributes for a sample of lemon-lime carbonated soft drink having […] was evaluated below.
The average normalized aftertaste attributes for a sample of lemon-lime carbonated soft drink having siamenoside I was evaluated below.

panel of volunteers [4] = experiment: Sensory testing for sparkling orange beverage; settings: sparkling orange beverage, 250 ppm (mogroside V 250 mg [sic]), average normalized score, 10-point scale
Method: as §2, §3
A panel of volunteers evaluated a sparkling orange beverage containing siamenodie I for in-mouth attributes and aftertaste attributes according to the methods described in Example 1 above.
The average normalized in-mouth attributes for a sample of sparkling orange beverage containing siamenoside I was evaluated and the results are provided below.
The average normalized aftertaste attributes for a sample of sparkling orange beverage containing siamenoside I was evaluated and the results are provided below.

panel of volunteers [5] = experiment: Sensory testing for vanilla milk; settings: average normalized score, 10-point scale; for Licorice Aftertaste / Lingering Sweetness / Mouth Coating / Overall Off-Taste: aftertaste
Method: as §2, §3
A panel of volunteers evaluated vanilla milk for in-mouth attributes and aftertaste attributes according to the methods described in Example 1 above.
The average normalized in-mouth attributes for each sample of vanilla milk was evaluated and the results are provided below.
The average normalized aftertaste attributes for each sample of vanilla milk containing siamenoside I was evaluated and the results are provided below.

panel of volunteers [6] = experiment: Sensory testing for apple drink (panel, in-mouth and aftertaste attributes); design: key to Sweetness / Delayed Sweetness / Bitterness / Lingering Sweetness / Overall Off-Taste / Licorice Aftertaste / Bitterness Aftertaste / Mouth Coating: 10-point scale; normalized per attribute to average Reb M scores; settings: 10-point scale; for Bitterness / Delayed Sweetness / Global Flavor Intensity / Sweetness / Thickness/Body: in-mouth, average normalized score
Method: as §2, §3
The average normalized in-mouth attributes for each sample of apple drink containing siamenoside I was evaluated below.
The average sweetness for each sample of apple drink containing siamenoside I was evaluated below.

[7] = 200 ppm (mogroside V 200 mg [sic])
[8] = 200 ppm (mogroside V 200 mg [sic]), in-mouth
[9] = 400 ppm (mogroside V 400 mg [sic])
[10] = 400 ppm (mogroside V 400 mg [sic]), in-mouth
[11] = 250 ppm (mogroside V 250 mg [sic]), aftertaste
[12] = 250 ppm (mogroside V 250 mg [sic])
[13] = 500 ppm (mogroside V 500 mg [sic]), aftertaste
[14] = 500 ppm (mogroside V 500 mg [sic])

C[C@H](CC[C@@H](O[C@@H]1O[C@H](CO[C@@H]2O[C@H](CO)[C@@H](O)[C@H](O)[C@H]2O)[C@@H](O)[C@H](O)[C@H]1O[C@@H]1O[C@H](CO)[C@@H](O)[C@H](O)[C@H]1O)C(C)(C)O)[C@H]1CC[C@@]2(C)[C@@H]3CC=C4[C@@H](CC[C@H](O[C@@H]5O[C@H](CO)[C@@H](O[C@@H]6O[C@H](CO)[C@@H](O)[C@H](O)[C@H]6O)[C@H](O)[C@H]5O)C4(C)C)[C@]3(C)[C@H](O)C[C@]12C [Isomogroside V]
Sweet Linger (panel of flavorists [1]): 4.625 (b) | Bitterness (panel of flavorists [1]): 0.875 (b) | Mouthfeel/Thickness (panel of flavorists [1]): 4.875 (ab) | Peak Sweetness (panel of flavorists [1]): 6.188 (b) | Upfront Sweetness (panel of flavorists [1]): 5.125 (b) | bitter aftertaste compared with stevia (expert panelists): lower bitter aftertaste | licorice aftertaste compared with stevia (expert panelists): lower licorice aftertaste | mouthfeel compared with stevia (expert panelists): better mouthfeel | Sweet Linger (panel of flavorists [2]): 4.857 (ab) | Bitterness (panel of flavorists [2]): 2.286 (a) | Mouthfeel/Thickness (panel of flavorists [2]): 2.571 (b) | Peak Sweetness (panel of flavorists [2]): 5.571 (bc) | Upfront Sweetness (panel of flavorists [2]): 4.000 (b)

C[C@H](CC[C@@H](O[C@@H]1O[C@H](CO[C@H]2O[C@H](CO)[C@@H](O)[C@H](O)[C@H]2O)[C@@H](O)[C@H](O)[C@H]1O[C@@H]1O[C@H](CO)[C@@H](O)[C@H](O)[C@H]1O)C(C)(C)O)[C@H]1CC[C@@]2(C)[C@]3(C)CC=C4[C@@H](CC[C@H](O[C@@H]5O[C@H](CO)[C@@H](O)[C@H](O)[C@H]5O)C4(C)C)[C@]3(C)[C@H](O)C[C@]12C [Siratose]
Sweet Linger (panel of flavorists [1]): 6.375 (a) | Bitterness (panel of flavorists [1]): 1.750 (a) | Mouthfeel/Thickness (panel of flavorists [1]): 5.375 (a) | Peak Sweetness (panel of flavorists [1]): 8.000 (a) | Upfront Sweetness (panel of flavorists [1]): 6.625 (a) | bitter aftertaste compared with stevia (expert panelists): lower bitter aftertaste | licorice aftertaste compared with stevia (expert panelists): lower licorice aftertaste | mouthfeel compared with stevia (expert panelists): better mouthfeel | Sweet Linger (panel of flavorists [2]): 6.143 (a) | Bitterness (panel of flavorists [2]): 1.357 (a) | Mouthfeel/Thickness (panel of flavorists [2]): 4.143 (a) | Peak Sweetness (panel of flavorists [2]): 8.429 (a) | Upfront Sweetness (panel of flavorists [2]): 6.571 (a)

C[C@H](CC[C@@H](O[C@@H]1O[C@H](CO[C@@H]2O[C@H](CO)[C@@H](O)[C@H](O)[C@H]2O)[C@@H](O)[C@H](O)[C@H]1O[C@@H]1O[C@H](CO)[C@@H](O)[C@H](O)[C@H]1O)C(C)(C)O)[C@H]1CC[C@@]2(C)[C@@H]3CC=C4[C@@H](CC[C@H](O[C@@H]5O[C@H](CO[C@@H]6O[C@H](CO)[C@@H](O)[C@H](O)[C@H]6O)[C@@H](O)[C@H](O)[C@H]5O)C4(C)C)[C@]3(C)[C@H](O)C[C@]12C [mogroside V]
Bitterness Aftertaste (panel of volunteers [3]; aftertaste): 1.6 | Licorice Aftertaste (panel of volunteers [3]; aftertaste): 2.3 | Lingering Sweetness (panel of volunteers [3]; aftertaste): 3.6 | Overall Off-Taste (panel of volunteers [3]; aftertaste): 3.7 | Bitterness (panel of volunteers [3]; in-mouth): 2.0 | Delayed Sweetness (panel of volunteers [3]; in-mouth): 3.4 | Global Flavor Intensity (panel of volunteers [3]; in-mouth): 3.9 | Sweetness (panel of volunteers [3]; in-mouth): 5.0 | Licorice Aftertaste (panel of volunteers [4]; aftertaste): 2.2 | Lingering Sweetness (panel of volunteers [4]; aftertaste): 3.6 | Mouth Coating (panel of volunteers [4]; aftertaste): 2.8 | Overall Off-Taste (panel of volunteers [4]; aftertaste): 2.9 | Delayed Sweetness (panel of volunteers [4]; in-mouth): 4.2 | Sweetness (panel of volunteers [4]; in-mouth): 5.1 | Licorice Aftertaste (panel of volunteers [5]; [7]): 0.8 | Lingering Sweetness (panel of volunteers [5]; [7]): 2.5 | Mouth Coating (panel of volunteers [5]; [7]): 2.9 | Overall Off-Taste (panel of volunteers [5]; [7]): 1.6 | Astringence (panel of volunteers [5]; [8]): 0.5 | Delayed Sweetness (panel of volunteers [5]; [8]): 1.9 | Fattiness (panel of volunteers [5]; [8]): 3.2 | Sourness (panel of volunteers [5]; [8]): 1.0 | Sweetness (panel of volunteers [5]; [8]): 5.0 | Licorice Aftertaste (panel of volunteers [5]; [9]): 1.1 | Lingering Sweetness (panel of volunteers [5]; [9]): 3.5 | Mouth Coating (panel of volunteers [5]; [9]): 0.9 | Overall Off-Taste (panel of volunteers [5]; [9]): 2.2 | Astringence (panel of volunteers [5]; [10]): 0.3 | Bitterness (panel of volunteers [5]; [10]): 1.2 | Delayed Sweetness (panel of volunteers [5]; [10]): 2.0 | Fattiness (panel of volunteers [5]; [10]): 3.5 | Global Flavor Intensity (panel of volunteers [5]; [10]): 4.2 | Sourness (panel of volunteers [5]; [10]): 0.9 | Sweetness (panel of volunteers [5]; [10]): 6.3 | Bitterness Aftertaste (panel of volunteers [6]; [11]): 1.3 | Licorice Aftertaste (panel of volunteers [6]; [11]): 2.3 | Lingering Sweetness (panel of volunteers [6]; [11]): 2.5 | Overall Off-Taste (panel of volunteers [6]; [11]): 3.4 | Bitterness (panel of volunteers [6]; [12]): 1.6 | Delayed Sweetness (panel of volunteers [6]; [12]): 2.5 | Global Flavor Intensity (panel of volunteers [6]; [12]): 3.0 | Sweetness (panel of volunteers [6]; [12]): 3.4 | Thickness/Body (panel of volunteers [6]; [12]): 1.3 | Licorice Aftertaste (panel of volunteers [6]; [13]): 2.0 | Lingering Sweetness (panel of volunteers [6]; [13]): 3.8 | Mouth Coating (panel of volunteers [6]; [13]): 2.1 | Overall Off-Taste (panel of volunteers [6]; [13]): 2.9 | Bitterness (panel of volunteers [6]; [14]): 1.3 | Delayed Sweetness (panel of volunteers [6]; [14]): 3.1 | Global Flavor Intensity (panel of volunteers [6]; [14]): 4.1 | Sweetness (panel of volunteers [6]; [14]): 5.2 | Thickness/Body (panel of volunteers [6]; [14]): 1.6

Isomogroside IVE
Sweet Linger (panel of flavorists [1]): 4.563 (b) | Bitterness (panel of flavorists [1]): 1.313 (ab) | Mouthfeel/Thickness (panel of flavorists [1]): 4.125 (b) | Peak Sweetness (panel of flavorists [1]): 5.938 (c) | Upfront Sweetness (panel of flavorists [1]): 5.125 (b) | bitter aftertaste compared with stevia (expert panelists): lower bitter aftertaste | licorice aftertaste compared with stevia (expert panelists): lower licorice aftertaste | mouthfeel compared with stevia (expert panelists): better mouthfeel | Sweet Linger (panel of flavorists [2]): 3.429 (c) | Bitterness (panel of flavorists [2]): 1.857 (a) | Mouthfeel/Thickness (panel of flavorists [2]): 2.714 (b) | Peak Sweetness (panel of flavorists [2]): 4.857 (c) | Upfront Sweetness (panel of flavorists [2]): 3.571 (b)
